# Patent US7514529B2, “Peptide mimotopes of lipooligosaccharide from nontypeable Haemophilus influenzae as vaccines” (The United States of America as represented by the …, priority 2003, dated 2009)
# Test system: target rabbit anti-LOS antibody
# Assay: Peptide ELISA (NucleoLink strips): synthetic peptides binding the target anti-LOS antibody
# Conditions: 5 μg peptide coupled to strip, 0.4 μg/well target antibody, average of duplicates
# Procedure: Four peptides were synthesized with a spacer (GGGS) at each C-terminus (Genemed Synthesis, Inc., San Francisco, Calif.). Binding reactivity of the synthetic peptides to the target anti-LOS antibody was tested with a peptide ELISA using Nunc NucleoLink™ Strips (Fisher Scientific, Pittsburgh, Pa.). Following the instructions of the product with modifications, the strips were coated covalently with its amino groups to the C-terminal carboxyl groups of the synthetic peptides by a coupling reagent, [1-Ethyl-3-(3-dimethylaminopropyl) carbodiimide HCl] (EDC, Pierce). Briefly, peptides and 0.1 M 1-methyl-imidazole (Meim) (Sigma-Aldrich) at pH 7 were pre-cooled on ice, and a 100 μl of individual peptide solution with 5 μg of peptide in 10 mM MeIm was prepared in a well of strips on ice. This peptide solution (75 μl) was mixed with 25 μl of freshly prepared 0.2 M EDC in 10 mM MeIm in another well of the strips. The strips were sealed and incubated at 50° C. for 5 h. After removing the reaction mixture, the strips were soaked with washing buffer (freshly prepared 0.25% SDS in 0.4 N NaOH and warmed at 50° C.) for 5 min and emptied. This step was performed for three times, followed by another three washings without the 5-min soaking. After removing the washing buffer, the strips was washed thoroughly with deionized water. The following steps were the same as described in the LOS ELISA (Gu et al. 1996 Infect Immun 64:4047). After blocking with 1% BSA in PBS, the target anti-LOS antibody was added in the amount of 0.4 μg/well followed by a goat anti-rabbit IgG alkaline phosphatase conjugate. The binding reactivity of the synthetic peptides to the target anti-LOS antibody was evaluated by OD405 values at 30 min after adding a substrate.
row,Sequence,Binding reactivity (OD405)
1,NMMKYISPPIFL [Peptide 3],1.11 OD405
2,NMMNYIMDPRTH [Peptide 2],2.52 OD405
3,NMMRFTELSTPS [Peptide 4],0.99 OD405
4,NMMRFTSQPPNN [Peptide 1],0.40 OD405
5,"TLAHHKKPWILR [Peptide 5, control peptide from an unrelated clone, reference compound]",0.33 OD405

# Same assay, conditions: peptide-coated ELISA
row,Sequence,Binding reactivity of synthetic peptides to target anti-LOS antibody (in words)
1,NMMKYISPPIFL [Peptide 3],higher binding reactivity
2,NMMNYIMDPRTH [Peptide 2],higher binding reactivity
3,NMMRFTELSTPS [Peptide 4],higher binding reactivity
4,NMMRFTSQPPNN [Peptide 1],did not show good antigenic mimic of the LOS
